# Results published in US6737383B1, “Herbicidal oxadiazolidines” (priority 1999, dated 2004).
# Key:
# bamyardgrass = experiment: Test B flood test barnyardgrass; assay type: in vivo, Echinochloa crus-galli
# Method in brief: (§1)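 Plants were grown to the 2-leaf stage before treatment with test chemical, then held in a greenhouse for twelve to sixteen days. Injury was visually rated against untreated controls on a 0–10 scale, where 0 is no effect and 10 is complete control.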
# pigweed = experiment: Test B pre/postemergence pigweed; assay type: in vivo, Amaranthus retroflexus; details: for Redroot pigweed plant response rating: scale of 0 to 10 where 0 is no effect and 10 is complete control
# Method in brief: (§2)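 Herbicidal effect was estimated by eye on a ten-point control scale after plants spent twelve to sixteen days in a greenhouse following soil or foliar treatment. Foliar sprays targeted plants at one to four leaves; all doses were formulated in a non-phytotoxic solvent with surfactant.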
# rice = experiment: Test B flood test rice; assay type: in vivo, Oryza sativa
# Method in brief: as §1
# sugar beet = experiment: Test B pre/postemergence sugar beet; assay type: in vivo, Beta vulgaris; details: for Sugarbeets plant response rating: scale of 0 to 10 where 0 is no effect and 10 is complete control
# Method in brief: as §2
# smallflower flatsedge = experiment: Test B flood test smallflower flatsedge; assay type: in vivo, Cyperus difformis
# Method in brief: as §1
# wheat = experiment: Test B pre/postemergence wheat; assay type: in vivo, Triticum aestivum; details: for Wheat plant response rating: scale of 0 to 10 where 0 is no effect and 10 is complete control
# Method in brief: as §2
# duck salad = experiment: Test B flood test duck salad; assay type: in vivo, Heteranthera limosa
# Method in brief: as §1
# rape = experiment: Test B pre/postemergence rape; assay type: in vivo, Brassica napus; details: for Rape plant response rating: scale of 0 to 10 where 0 is no effect and 10 is complete control
# Method in brief: as §2
# velvetleaf = experiment: Test B pre/postemergence velvetleaf; assay type: in vivo, Abutilon theophrasti; details: for Velvetleaf plant response rating: scale of 0 to 10 where 0 is no effect and 10 is complete control
# Method in brief: as §2
# soybean = experiment: Test B pre/postemergence soybean; assay type: in vivo, Glycine max; details: for Soybean plant response rating: scale of 0 to 10 where 0 is no effect and 10 is complete control
# Method in brief: as §2
# giant foxtail = experiment: Test B pre/postemergence giant foxtail; assay type: in vivo, Setaria faberii; details: for Giant foxtail plant response rating: scale of 0 to 10 where 0 is no effect and 10 is complete control
# Method in brief: as §2
# cocklebur = experiment: Test B pre/postemergence cocklebur; assay type: in vivo, Xanthium strumarium; details: for Cocklebur plant response rating: scale of 0 to 10 where 0 is no effect and 10 is complete control
# Method in brief: as §2
# morningglory = experiment: Test B pre/postemergence morningglory; assay type: in vivo, Ipomoea hederacea; details: for Morningglory plant response rating: scale of 0 to 10 where 0 is no effect and 10 is complete control
# Method in brief: as §2
# purple nutsedge = experiment: Test B pre/postemergence purple nutsedge; assay type: in vivo, Cyperus rotundus; details: for Nutsedge plant response rating: scale of 0 to 10 where 0 is no effect and 10 is complete control
# Method in brief: as §2
# wild oat = experiment: Test B pre/postemergence wild oat; assay type: in vivo, Avena fatua; details: for Wild oats plant response rating: scale of 0 to 10 where 0 is no effect and 10 is complete control
# Method in brief: as §2
# blackgrass = experiment: Test B pre/postemergence blackgrass; assay type: in vivo, Alopecurus myosuroides; details: for Blackgrass plant response rating: scale of 0 to 10 where 0 is no effect and 10 is complete control
# Method in brief: as §2
# [1] = Postemergence (flood test), Rate 125 g/ha, scale 0 to 10, 0 is no effect, 10 is complete control
# [2] = Rate 62 g/ha, Postemergence (flood test species), scale of 0 to 10 where 0 is no effect and 10 is complete control
# [3] = Rate 62 g/ha, flood test species, Pre-emergence, visual evaluation after twelve to sixteen days
# [4] = Rate 125 g/ha, under heading Pre-emergence, flood test species, visual evaluation after twelve to sixteen days
# [5] = Rate 250 g/ha, Pre-emergence, flood-test species, scale 0 to 10, 0 is no effect, 10 is complete control
# [6] = Rate 500 g/ha, listed under Postemergence (flood test species), scale 0 to 10, 0 no effect, 10 complete control
# [7] = Rate 500 g/ha, Pre-emergence, flood test species, scale 0 to 10 (0 no effect, 10 complete control)
# [8] = flood test species, listed under Postemergence, Rate 250 g/ha, scale 0 to 10, 0 is no effect, 10 is complete control
# [9] = Postemergence, Rate 125 g/ha, scale 0 to 10, 0 is no effect, 10 is complete control
# [10] = Postemergence, Rate 250 g/ha, scale 0 to 10, 0 is no effect, 10 is complete control
# [11] = Preemergence, Rate 62 g/ha, scale 0 to 10 (0 no effect, 10 complete control)
# [12] = Rate 500 g/ha, Postemergence, scale 0 to 10, 0 no effect, 10 complete control
smiles,measurement,setting,value
CC1CC1n1c(=O)on(C(=O)N(c2ccc(F)cc2F)C(C)C)c1=O (stereo not shown) [Compound 372],"Plant response rating, Barnyardgrass",bamyardgrass; [1],0
same,Barnyardgrass plant response rating,bamyardgrass; [2],0
same,"Plant response rating, Barnyardgrass (0 to 10 scale, 0 is no effect, 10 is complete control)",bamyardgrass; [3],0
same,"Barnyardgrass plant response rating (0 to 10 scale, 0 is no effect, 10 is complete control)",bamyardgrass; [4],0
same,Barnyardgrass plant response rating,bamyardgrass; [5],0
same,"Plant response rating, Barnyardgrass",bamyardgrass; [6],6
same,Barnyardgrass plant response rating,bamyardgrass; [7],0
same,"Plant response rating, Barnyardgrass",bamyardgrass; [8],4
same,"Plant response rating, Redroot pigweed",pigweed; [9],3
same,"Plant response rating, Redroot pigweed",pigweed; [10],6
same,"Plant response rating, Redroot pigweed",pigweed; [11],6
same,Redroot pigweed plant response rating (0 to 10 scale),"pigweed; Preemergence, Rate 125 g/ha",10
same,Redroot pigweed plant response rating,"pigweed; Preemergence, Rate 250 g/ha",10
same,Redroot pigweed plant response rating,"pigweed; Preemergence, Rate 500 g/ha",10
same,Redroot pigweed plant response rating,"pigweed; Rate 62 g/ha, Postemergence",2
same,"Plant response rating, Redroot pigweed",pigweed; [12],9
same,"Plant response rating, Rice",rice; [1],0
same,Rice plant response rating,rice; [2],0
same,"Plant response rating, Rice (0 to 10 scale, 0 is no effect, 10 is complete control)",rice; [3],0
same,"Rice plant response rating (0 to 10 scale, 0 is no effect, 10 is complete control)",rice; [4],0
same,Rice plant response rating,rice; [5],0
same,"Plant response rating, Rice",rice; [6],2
same,Rice plant response rating,rice; [7],0
same,"Plant response rating, Rice",rice; [8],2
same,"Plant response rating, Sugarbeets",sugar beet; [9],2
same,"Plant response rating, Sugarbeets",sugar beet; [10],2
same,"Plant response rating, Sugarbeets",sugar beet; [11],2
same,Sugarbeets plant response rating (0 to 10 scale),"sugar beet; Preemergence, Rate 125 g/ha",4
same,Sugarbeets plant response rating,"sugar beet; Preemergence, Rate 250 g/ha",10
same,Sugarbeets plant response rating,"sugar beet; Preemergence, Rate 500 g/ha",10
same,Sugarbeets plant response rating,"sugar beet; Rate 62 g/ha, Postemergence",0
same,"Plant response rating, Sugarbeets",sugar beet; [12],8
same,"Plant response rating, S. Flatsedge",smallflower flatsedge; [1],2
same,S. Flatsedge plant response rating,smallflower flatsedge; [2],2
same,"Plant response rating, S. Flatsedge (0 to 10 scale, 0 is no effect, 10 is complete control)",smallflower flatsedge; [3],0
same,"S. Flatsedge plant response rating (0 to 10 scale, 0 is no effect, 10 is complete control)",smallflower flatsedge; [4],0
same,S. Flatsedge plant response rating,smallflower flatsedge; [5],0
same,"Plant response rating, S. Flatsedge",smallflower flatsedge; [6],8
same,S. Flatsedge plant response rating,smallflower flatsedge; [7],0
same,"Plant response rating, S. Flatsedge",smallflower flatsedge; [8],8
same,"Plant response rating, Wheat",wheat; [9],0
same,"Plant response rating, Wheat",wheat; [10],0
same,"Plant response rating, Wheat",wheat; [11],0
same,Wheat plant response rating (0 to 10 scale),"wheat; Preemergence, Rate 125 g/ha",0
same,Wheat plant response rating,"wheat; Preemergence, Rate 250 g/ha",0
same,Wheat plant response rating,"wheat; Preemergence, Rate 500 g/ha",6
same,Wheat plant response rating,"wheat; Rate 62 g/ha, Postemergence",0
same,"Plant response rating, Wheat",wheat; [12],2
same,"Plant response rating, Ducksalad",duck salad; [1],6
same,Ducksalad plant response rating,duck salad; [2],3
same,"Plant response rating, Ducksalad (0 to 10 scale, 0 is no effect, 10 is complete control)",duck salad; [3],0
same,"Ducksalad plant response rating (0 to 10 scale, 0 is no effect, 10 is complete control)",duck salad; [4],0
same,Ducksalad plant response rating,duck salad; [5],0
same,"Plant response rating, Ducksalad",duck salad; [6],6
same,Ducksalad plant response rating,duck salad; [7],0
same,"Plant response rating, Ducksalad",duck salad; [8],6
same,"Plant response rating, Rape",rape; [10],3
same,"Plant response rating, Rape",rape; [11],5
same,Rape plant response rating (0 to 10 scale),"rape; Preemergence, Rate 125 g/ha",5
same,Rape plant response rating,"rape; Preemergence, Rate 250 g/ha",10
same,Rape plant response rating,"rape; Preemergence, Rate 500 g/ha",10
same,Rape plant response rating,"rape; Rate 62 g/ha, Postemergence",2
same,"Plant response rating, Rape",rape; [12],5
same,"Plant response rating, Velvetleaf",velvetleaf; [9],0
same,"Plant response rating, Velvetleaf",velvetleaf; [10],2
same,"Plant response rating, Velvetleaf",velvetleaf; [11],3
same,Velvetleaf plant response rating (0 to 10 scale),"velvetleaf; Preemergence, Rate 125 g/ha",5
same,Velvetleaf plant response rating,"velvetleaf; Preemergence, Rate 250 g/ha",6
same,Velvetleaf plant response rating,"velvetleaf; Preemergence, Rate 500 g/ha",7
same,Velvetleaf plant response rating,"velvetleaf; Rate 62 g/ha, Postemergence",0
same,"Plant response rating, Velvetleaf",velvetleaf; [12],2
same,"Plant response rating, Soybean",soybean; [9],1
same,"Plant response rating, Soybean",soybean; [10],2
same,"Plant response rating, Soybean",soybean; [11],0
same,Soybean plant response rating (0 to 10 scale),"soybean; Preemergence, Rate 125 g/ha",0
same,Soybean plant response rating,"soybean; Preemergence, Rate 250 g/ha",0
same,Soybean plant response rating,"soybean; Preemergence, Rate 500 g/ha",2
same,Soybean plant response rating,"soybean; Rate 62 g/ha, Postemergence",1
same,"Plant response rating, Soybean",soybean; [12],3
same,"Plant response rating, Giant foxtail",giant foxtail; [9],9
same,"Plant response rating, Giant foxtail",giant foxtail; [10],9
same,"Plant response rating, Giant foxtail",giant foxtail; [11],10
same,Giant foxtail plant response rating (0 to 10 scale),"giant foxtail; Preemergence, Rate 125 g/ha",10
same,Giant foxtail plant response rating,"giant foxtail; Preemergence, Rate 250 g/ha",10
same,Giant foxtail plant response rating,"giant foxtail; Preemergence, Rate 500 g/ha",10
same,Giant foxtail plant response rating,"giant foxtail; Rate 62 g/ha, Postemergence",4
same,"Plant response rating, Giant foxtail",giant foxtail; [12],9
same,"Plant response rating, Cocklebur",cocklebur; [9],0
same,"Plant response rating, Cocklebur",cocklebur; [10],0
same,"Plant response rating, Cocklebur",cocklebur; [11],0
same,Cocklebur plant response rating (0 to 10 scale),"cocklebur; Preemergence, Rate 125 g/ha",0
same,Cocklebur plant response rating,"cocklebur; Preemergence, Rate 250 g/ha",2
same,Cocklebur plant response rating,"cocklebur; Preemergence, Rate 500 g/ha",2
same,Cocklebur plant response rating,"cocklebur; Rate 62 g/ha, Postemergence",0
same,"Plant response rating, Cocklebur",cocklebur; [12],3
same,"Plant response rating, Morningglory",morningglory; [9],7
same,"Plant response rating, Morningglory",morningglory; [10],7
same,"Plant response rating, Morningglory",morningglory; [11],0
same,Morningglory plant response rating (0 to 10 scale),"morningglory; Preemergence, Rate 125 g/ha",0
same,Morningglory plant response rating,"morningglory; Preemergence, Rate 250 g/ha",2
same,Morningglory plant response rating,"morningglory; Preemergence, Rate 500 g/ha",3
same,Morningglory plant response rating,"morningglory; Rate 62 g/ha, Postemergence",5
same,"Plant response rating, Morningglory",morningglory; [12],10
same,"Plant response rating, Nutsedge",purple nutsedge; [9],0
same,"Plant response rating, Nutsedge",purple nutsedge; [10],0
same,"Plant response rating, Nutsedge",purple nutsedge; [11],0
same,Nutsedge plant response rating (0 to 10 scale),"purple nutsedge; Preemergence, Rate 125 g/ha",0
same,Nutsedge plant response rating,"purple nutsedge; Preemergence, Rate 250 g/ha",0
same,Nutsedge plant response rating,"purple nutsedge; Preemergence, Rate 500 g/ha",10
same,Nutsedge plant response rating,"purple nutsedge; Rate 62 g/ha, Postemergence",0
same,"Plant response rating, Nutsedge",purple nutsedge; [12],0
same,"Plant response rating, Wild oats",wild oat; [9],4
same,"Plant response rating, Wild oats",wild oat; [10],5
same,"Plant response rating, Wild oats",wild oat; [11],4
same,Wild oats plant response rating (0 to 10 scale),"wild oat; Preemergence, Rate 125 g/ha",7
same,Wild oats plant response rating,"wild oat; Preemergence, Rate 250 g/ha",9
same,Wild oats plant response rating,"wild oat; Preemergence, Rate 500 g/ha",10
same,Wild oats plant response rating,"wild oat; Rate 62 g/ha, Postemergence",2
same,"Plant response rating, Wild oats",wild oat; [12],8
same,"Plant response rating, Blackgrass",blackgrass; [9],4
same,"Plant response rating, Blackgrass",blackgrass; [10],7
same,"Plant response rating, Blackgrass",blackgrass; [11],5
same,Blackgrass plant response rating (0 to 10 scale),"blackgrass; Preemergence, Rate 125 g/ha",6
same,Blackgrass plant response rating,"blackgrass; Preemergence, Rate 250 g/ha",10
same,Blackgrass plant response rating,"blackgrass; Preemergence, Rate 500 g/ha",10
same,Blackgrass plant response rating,"blackgrass; Rate 62 g/ha, Postemergence",4
same,"Plant response rating, Blackgrass",blackgrass; [12],10
